Results reported in patent publication US20220274947A1, “NOVEL HETEROARYL-TRIAZOLE COMPOUNDS AS PESTICIDES” (Bayer Aktiengesellschaft, priority 2019, published 2022).

What was measured:
Type in all cases: in vivo
[1] = test system: Rhipicephalus sanguineus; experiment: Rhipicephalus sanguineus in-vitro contact test, adult brown dog ticks (RHIPSA Cont); conditions: 48 h, after 48 hours, read-out: activity (efficacy: 100% means all ticks are dead or moribund); for pest or weed control at 1 µg/cm2, 100 g/ha: application rate 1 μg/cm^2 (=100 g/ha); for pest or weed control at 5 µg/cm2, 500 g/ha: application rate 5 μg/cm^2 (=500 g/ha)
In short: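 Compound in acetone (9 mg/mL stock, diluted to test concentration) is coated onto inner walls of glass tubes by rotation for 2 h at 30 rpm. Efficacy is read after 48 h: ticks are tapped down and held on a 45-50° C plate for at most 5 min, and immotile or uncoordinated ones that fail to climb away count as dead or moribund.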

[2] = test system: Myzus persicae; experiment: Myzus persicae spray test; conditions: in Brassica rapa, foliar, 120 h; for mortality at 100 g/ha: read-out: activity (mortality), application rate 100 g/ha, spray, Chinese cabbage leaf disks, after 5 days; for mortality at 500 g/ha: read-out: activity (mortality), application rate 500 g/ha, spray, Chinese cabbage leaf disks, after 5 days
Description: Myzus persicae—Spray Test Solvent: 78.0 parts by weight acetone • 1.5 parts by weight dimethylformamide Emulsifier: alkylarylpolyglycol ether To produce a suitable preparation of active compound, 1 part by weight of active compound is mixed with the stated amount of solvents and is diluted with water, containing an emulsifier concentration of 1000 ppm, to the desired concentration. Further test concentrations are prepared by dilution with emulsifier containing water.
Chinese cabbage (Brassica pekinensis) leaf disks infected with all instars of the green peach aphid (Myzus persicae), are sprayed with a preparation of the active ingredient of the desired concentration.
After 5 days mortality in % is determined. 100% means all aphids have been killed and 0% means none of the aphids have been killed.

[3] = test system: Rhipicephalus microplus; experiment: Rhipicephalus (Boophilus) microplus injection test (BOOPMI Inj); conditions: 168 h, injection into adult engorged female ticks, egg deposition after 7 days, read-out: activity (efficacy: 100% means all eggs are infertile); for pest or weed control at 0.004 mg: application rate 4 μg/tick; for pest or weed control at 0.02 mg: application rate 20 μg/tick
In short: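 Compound in DMSO, 1 μL, injected abdominally into five adult engorged females, which were then held in a climate chamber. Read-out is egg fertility, scored from deposition at 7 days, with unclear eggs followed to hatching (~42 days); 0% means all eggs fertile, 100% all infertile.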

[4] = test system: Spodoptera frugiperda; experiment: Spodoptera frugiperda spray test; conditions: in Zea mays, 168 h, read-out: activity (mortality)
In short: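 Percent kill of fall armyworm caterpillars was assessed 7 days after infesting dried, treated maize leaf sections. Treatment was a spray of compound in acetone/dimethylformamide, diluted with water containing emulsifier at 1000 ppm.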

[5] = test system: Rhipicephalus microplus; experiment: Rhipicephalus (Boophilus) microplus in-vitro contact test, larval cattle tick, strain Parkhurst (BOOPMI Cont); conditions: application rate 5 μg/cm^2 (=500 g/ha), tick larvae, after 48 hours, read-out: activity (efficacy: 100% means all larvae are dead or moribund)
In short: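 After 48 h at 27° C. and 85% humidity, percent dead or moribund larvae was scored from negative geotactic behaviour. Larvae (20-50, Parkhurst strain, synthetic pyrethroid-resistant) were exposed in tubes coated with compound from acetone, 900 ppm corresponding to 5 μg/cm^2.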

[6] = test system: Aedes aegypti strain MONHEIM; experiment: Aedes aegypti test (AEDSAE surface treatment & contact assay); conditions: surface concentration 20 mg/m^2, glazed tile, exposure 30 minutes, 24 hours after contact, read-out: efficacy (mortality)
In short: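 Compound dissolved in acetone (2 mg/ml) with 2000 ppm rapeseed oil methyl ester, pipetted onto glazed tile and dried. Adult mosquitoes exposed on the surface for 30 min; percent mortality scored 24 h after contact.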

[7] = test system: Musca domestica strain WHO—N; experiment: Musca domestica test (MUSCDO surface treatment & contact assay); conditions: exposure 30 minutes, 24 hours after contact, read-out: efficacy (mortality); for mortality at 4 mg/m2: surface concentration 4 mg/m^2, glazed tile; for mortality at 20 mg/m2: surface concentration 20 mg/m^2, glazed tile
In short: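 Compound dissolved in acetone (2 mg/ml) with 2000 ppm rapeseed oil methyl ester and pipetted onto glazed tile; after acetone evaporation, adult flies exposed to dried surface for 30 minutes. Mortality (%) scored 24 hours after contact.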

[8] = test system: Nezara viridula; experiment: Nezara viridula spray test; conditions: in Hordeum vulgare, 96 h, barley plants, larvae, after 4 days; for mortality at 100 g/ha: application rate 100 g/ha; for mortality at 500 g/ha: application rate 500 g/ha
Description: Nezara viridula—Spray Test Solvent: 78.0 parts by weight of acetone • • 1.5 parts by weight of dimethylformamide Emulsifier: alkylarylpolyglycol ether
To produce a suitable preparation of active compound, 1 part by weight of active compound is mixed with the stated amount of solvent, and the concentrate is diluted with water, containing an emulsifier concentration of 1000 ppm, to the desired concentration. Further test concentrations are prepared by dilution with emulsifier containing water.
Barley plants (Hordeum vulgare) infested with larvae of the southern green stink bug (Nezara viridula) are sprayed with a test solution containing the desired concentration of the active ingredient.
After 4 days mortality in % is determined. 100% means all the stink bugs have been killed; 0% means none of the stink bugs have been killed.

[9] = test system: Diabrotica balteata; experiment: Diabrotica balteata spray test; conditions: 168 h, wheat seeds, larvae, after 7 days, read-out: activity (efficacy: 100% means all seedlings have grown up like in the untreated, uninfected control); for pest or weed control at 32 µg/disc, 100 g/ha: application rate 100 g/ha (=32 μg/well); for pest or weed control at 160 µg/disc, 500 g/ha: application rate 500 g/ha (=160 μg/well)
In short: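 Efficacy (%) was scored 7 days after spraying, with 100% meaning growth like the untreated, uninfected control and 0% meaning no seedling grew. Spray solutions of compound in acetone/DMF with emulsifier-containing water went onto 1-day-germinated wheat seeds, and each unit was then infested with 10-20 banded cucumber beetle larvae.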

[10] = test system: Ctenocephalides felis; experiment: Ctenocephalides felis in-vitro contact test, adult cat flea (CTECFE Cont); conditions: application rate 5 μg/cm^2 (=500 g/ha), adult cat fleas, after 48 hours, read-out: activity (efficacy: 100% means all fleas are dead or moribund)
In short: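 Efficacy, as percent of fleas dead or moribund, was scored 48 h after adults (5-10 per tube) were placed in glass tubes whose walls carried dried compound at 5 μg/cm^2 (900 ppm solution). Moribund meant failing to climb away from a 45-50° C. hot plate within 5 min.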

[11] = test system: Myzus persicae; experiment: Myzus persicae oral test; conditions: 120 h, read-out: activity (mortality)
In short: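 Percent mortality was recorded at day 5, where 0% means no aphids killed. Compound prepared from an acetone concentrate diluted in water and combined with IPL41 medium containing sugar was offered to mixed-stage green peach aphids, which sucked it through a parafilm seal.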

[12] = test system: Ctenocephalides felis; experiment: Ctenocephalides felis oral test (CTECFE Oral); conditions: 48 h, read-out: activity (mortality)
In short: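 Percent mortality was recorded 2 days after roughly 20 adult Ctenocephalides felis fed on treated cattle blood. The blood was warmed to 37 °C beneath a parafilm membrane, with the fleas kept at room temperature. Compound was dissolved in DMSO and diluted into the blood to test concentration.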

SMILES	pest or weed control at 1 µg/cm2, 100 g/ha [1]	pest or weed control at 5 µg/cm2, 500 g/ha [1]	mortality at 100 g/ha [2]	pest or weed control at 0.004 mg [3]	pest or weed control at 0.02 mg [3]	mortality at 100 g/ha [4]	pest or weed control at 5 µg/cm2 [5]	mortality at 20 mg/m2 [6]	mortality at 4 mg/m2 [7]	mortality at 20 mg/m2 [7]	mortality at 100 g/ha [8]	pest or weed control at 32 µg/disc, 100 g/ha [9]	pest or weed control at 5 µg/cm2 [10]	mortality at 0.8 ppm [11]	mortality at 4 ppm [11]	mortality at 500 g/ha [8]	mortality at 500 g/ha [2]	mortality at 500 g/ha [4]	pest or weed control at 160 µg/disc, 500 g/ha [9]	mortality at 100 ppm [12]
C[C@H](NC(=O)c1cc(C(F)(F)F)cc(C(F)(F)F)c1)c1nc(C(C)(C)C)nn1-c1ccc(C#N)cn1 [I-37]	100%	100%	90%	100%	100%	100%	100%	80 to 100%	80 to 100%	80 to 100%	100%	100%								
COc1nc([C@H](C)NC(=O)c2cc(OC(F)F)cc(OC(F)F)c2)n(-c2ccc(C#N)cn2)n1 [I-64]		80%	90%			100%	100%				90%	100%	90%	100%	100%	100%				
COc1nc([C@H](C)NC(=O)c2cc(OC(F)F)cc(C(F)F)c2)n(-c2ccc(C#N)cn2)n1 [I-65]		80%	90%			100%	100%					100%			100%	100%				
C[C@H](NC(=O)c1cc(C(F)(F)F)cc(C(F)(F)F)c1)c1ncnn1-c1ncc(I)s1 [II-39]	100%	100%		100%	100%	100%	100%	80 to 100%	80 to 100%	80 to 100%		100%				90%	100%	100%	100%	
CC(C)CN(C)C(=O)c1ccc(-n2ncnc2[C@H](C)NC(=O)c2cc(Cl)cc(C(F)(F)F)c2)nc1 [II-71]		100%	90%	100%	100%		100%					100%	100%		90%	100%	90%	100%	100%	
Cc1nc([C@H](C)NC(=O)c2cc(C(F)(F)F)cc(C(F)(F)F)c2)n(-c2ccc(C(=O)N(C)C(C)C)cn2)n1 [II-92]	100%	100%	90%	100%		100%	100%				90%		100%		100%					
COCCN(C)C(=O)c1ccc(-n2nc(C)nc2[C@H](C)NC(=O)c2cc(C(F)(F)F)cc(C(F)(F)F)c2)nc1 [II-98]	100%	100%	90%	100%		83%	100%								100%					100%
Cc1nc([C@H](C)NC(=O)c2cc(C(F)(F)F)cc(C(F)(F)F)c2)n(-c2ccc(C(=O)N(C)C)cn2)n1 [II-100]	100%	100%	100%	100%		100%	100%				100%		100%	100%	100%					
Cc1nc([C@H](C)NC(=O)c2cc(Br)cc(OC(F)(F)F)c2)n(-c2cc(C#N)ccn2)n1 [II-106]	100%	100%	90%	100%		100%	100%					100%	90%		100%					100%
CCSc1cc(C#N)cc(C(=O)N[C@@H](C)c2ncnn2-c2ccc(C#N)cn2)c1 [II-109]	100%	100%	90%	100%			100%				100%	100%	100%	90%	100%					
Cc1nc([C@H](C)NC(=O)c2cc(C(F)F)cc(C(F)F)c2)n(-c2ccc(C#N)cn2)n1 [II-114]	100%	100%	90%			83%	100%				100%	100%	100%	100%	100%					
Cc1nc([C@H](C)NC(=O)c2cc(OC(F)F)cc(OC(F)F)c2)n(-c2ccc(C#N)cn2)n1 [II-115]		100%	90%			100%	100%				100%	100%	90%	100%	100%					
